Experimental data reported in patent US5367110A, “Transgenic plants overproducing threonine and lysine” (Yeda Research and Development Co. Ltd., priority 1990, dated 1994).
“Also recorded” adds a separate entry of the source. Like-named read-outs stand apart in the source and are kept apart here.

Columns and labels:
[1] = system: tobacco shoots (control and transgenic plant B-7); assay: Resistance of tobacco shoots to aminoethylcysteine (AEC); format: in vivo; conditions: 0.1 and 0.15 mM AEC in MS medium; transgenic B-7 (E. coli DHPS) vs control
Procedure: To test whether the transgenic tobacco plants expressing the E. coli DHPS gene were more resistant to the lysine analog AEC compared to control nontransformed plants, shoots from control plants (FIG. 21, left) and from transgenic tobacco plant B-7 (FIG. 21, right) were dipped in MS medium containing 2 mg/l kinetin, 0.8 mg/l IAA and either 0, 0.1, 0.15 or 0.2 mM AEC.

E. coli DHPS [2] = molecular target: T1, E. coli DHPS (Escherichia coli, UniProt P0A6L2); conditions: cited from earlier work
DHPS = molecular target: T2, DHPS (Nicotiana tabacum, UniProt Q42948); assay: DHPS activity (O-ABA assay) with increasing lysine, leaf extracts of control nontransformed tobacco; format: biochemical
T2 construct: from tissue; host or cells: leaves of nontransformed tobacco (crude extract)
T2 sequence (Q42948 34-359): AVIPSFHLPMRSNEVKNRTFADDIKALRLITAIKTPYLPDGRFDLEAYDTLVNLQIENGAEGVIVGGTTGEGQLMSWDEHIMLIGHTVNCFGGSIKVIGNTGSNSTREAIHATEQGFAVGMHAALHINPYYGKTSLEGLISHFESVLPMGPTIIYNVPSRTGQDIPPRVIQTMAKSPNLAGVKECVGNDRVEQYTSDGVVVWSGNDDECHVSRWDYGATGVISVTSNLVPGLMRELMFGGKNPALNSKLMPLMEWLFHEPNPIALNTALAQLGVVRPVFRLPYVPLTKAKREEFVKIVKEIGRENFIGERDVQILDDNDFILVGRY
Procedure: (§1) Transgenic plants were screened for an elevated DHPS activity. DHPS activity was assayed in crude extracts from leaves of transgenic plants by the O-amino-benzaldehyde (O-ABA) assay of Yugari and Gilvarg (Yugari Y. and Gilvarg C., (1965) J. Biol. Chem. 240: 4710-4716) with slight modifications. Leaves from axenic tobacco plants grown in culture were homogenized with a mortar and pestle in an equal volume of cold 100 mM Tris-HCl pH 7.5 containing 1 mM phenylmethylsulfonylfluoride and 0.5 μg/ml leupeptine. Following 5 min centrifugation (16,000 xg, 4° C.) the supernatant was collected and its protein concentration was determined by the method of Bradford.
(§2) DHPS activity was assayed as above but in the presence of increasing lysine concentrations. At each lysine concentration, DHPS activity is presented as a percentage of the activity in extracts with no lysine added (average of two plants for each transformation). (Control)--nontransformed plants; (Cytoplasm)--average DHPS activity of plants A-11 and A-22 containing the cytoplasmic-type E. coli DHPS; (Chloroplast)--average DHPS activity of plants B-7 and B-15 containing the chloroplastic-type E. coli DHPS. The elevated levels of DHPS activity in the transgenic plants clearly resulted from the expression of the E. coli enzyme in them. […] In contrast, the I50 for DHPS inhibition by lysine in the control nontransformed plants was 27 μM.

E. coli DHPS [3] = molecular target: T1, E. coli DHPS; assay: DHPS activity (O-ABA assay) with increasing lysine, leaf extracts of transgenic tobacco expressing E. coli DHPS; format: biochemical; design: pea rbcS-3A chloroplast transit peptide (chloroplastic type only; absent in the cytoplasmic type) (N); expressed in transfected cells; host or cells: transgenic tobacco plants (crude leaf extract; A-11 and A-22 cytoplasmic type, B-7 and B-15 chloroplastic type)
Procedure: as §1, §2

[4] = molecular target: T3, E. coli mutated, desensitized AK (Escherichia coli, UniProt P08660); assay: AK activity with lysine and/or threonine, leaf extracts of transgenic plant E-6; format: biochemical; conditions: 10 mM lysine, threonine or both; transgenic plant E-6 (mutant bacterial enzyme)
T3 construct: transgenic tobacco plant E-6, crude leaf extract
Procedure: (§3) Transgenic plants were screened for an elevated AK activity. AK activity was assayed in crude extracts from leaves of transgenic plants by the method of Black and Wright (Black, S., et al. (1955) J. Biol. Chem. 213: 27-38). Leaves from axenic tobacco plants grown on Nitsch minimal medium (Nitsch, J. P. (1969) Phytomorphology 19: 389-404) in Magenta boxes for about one month were homogenized with a mortar and pestle in an equal volume of cold 20 mM potassium phosphate buffer pH 7.0 containing 30 mM β-mercaptoethanol, 0.1 mM L-lysine, 0.1 mM L-threonine, 1 mM phenylmethylsulfonilfluoride and 0.5 mM leupeptin. Following 5 min centrifugation (16,000 .g, 4° C.) the supernatant was collected and its protein concentration was determined by the method of Bradford (Bradford, M. M. (1976) Anal. Biochem. 72: 248-254). Equal amounts of protein were then tested for AK activity. […] The reaction mixture was stopped by addition of 0.25 ml of a 1:1:1 mixture of 10% FeCl3 in 0.1M HCl, 3M HCl and 12% TCA, centrifuged and the optical absorbance of the supernatant at 490 nm was measured.
(§4) AK activity was measured in crude extracts prepared from tobacco leaves as above except that 10 mM lysine, threonine or both amino acids were present in the reaction mixture as indicated on the right. […]

E. coli DHPS [5] = assay: DHPS activity (O-ABA assay) with increasing lysine, leaf extracts of transgenic tobacco expressing E. coli DHPS; format: biochemical; conditions: transgenic vs wild type/control plants
Procedure: as §1, §2

plant DHPSs = conditions: plant DHPS; read-out: I50 of plant DHPSs, lysine; cited from earlier work
[6] = system: nontransformed tobacco leaf AK; assay: AK activity with lysine and/or threonine, leaf extracts of nontransformed tobacco; format: biochemical; conditions: 10 mM lysine, threonine or both; nontransformed (wild type) tobacco leaf extract
Procedure: as §3, §4

T1 sequence (P0A6L2 whole entry): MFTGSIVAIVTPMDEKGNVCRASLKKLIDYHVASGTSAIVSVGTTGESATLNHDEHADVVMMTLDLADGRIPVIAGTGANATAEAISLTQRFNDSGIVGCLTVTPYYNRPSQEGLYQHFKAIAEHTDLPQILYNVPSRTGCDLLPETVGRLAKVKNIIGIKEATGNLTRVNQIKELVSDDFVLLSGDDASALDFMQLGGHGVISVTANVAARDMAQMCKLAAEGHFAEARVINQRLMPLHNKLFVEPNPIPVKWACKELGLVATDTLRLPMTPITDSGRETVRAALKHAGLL
T3 sequence (P08660 2-449, change not shown): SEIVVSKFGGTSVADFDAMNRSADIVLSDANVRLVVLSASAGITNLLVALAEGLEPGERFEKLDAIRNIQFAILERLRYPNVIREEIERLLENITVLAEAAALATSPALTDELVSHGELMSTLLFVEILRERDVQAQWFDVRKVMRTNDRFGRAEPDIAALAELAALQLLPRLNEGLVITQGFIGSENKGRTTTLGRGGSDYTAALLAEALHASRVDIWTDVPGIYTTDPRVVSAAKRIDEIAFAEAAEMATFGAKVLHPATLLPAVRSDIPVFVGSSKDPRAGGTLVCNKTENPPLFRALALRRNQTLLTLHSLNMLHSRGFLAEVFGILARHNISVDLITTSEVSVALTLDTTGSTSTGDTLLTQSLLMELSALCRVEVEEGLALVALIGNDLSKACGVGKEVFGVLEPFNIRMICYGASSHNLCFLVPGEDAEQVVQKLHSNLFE

With `NCCSC[C@H](N)C(=O)O` [AEC, S-(2-aminoethyl)-L-cysteine] as the molecule, how does the “growth of transgenic shoots compared with control in AEC medium” value [1] read?
The value was “the transgenic plant clearly grows better than the control; also recorded: much less sensitive”.

For `NCCCC[C@H](N)C(=O)O` [lysine], which IC50 (E. coli DHPS [2]; read-out: I50 of E. coli DHPS, lysine, E. coli DHPS) is on record?
Its IC50 is about 1000 µM.

What about the IC50 (E. coli DHPS [2]; read-out: of E. coli DHPS, lysine inhibition, E. coli DHPS (dapA)) of the same molecule?
Its IC50 is 1000 µM.

And the IC50 (DHPS)?
The IC50 was 27 µM.

What about the inhibition at 1000 µM (E. coli DHPS [3]; 1 mM lysine, read-out: inhibition of bacterial DHPS) of the same molecule?
The inhibition at 1000 µM was about 50%.

What about the IC50 (E. coli DHPS [3]; transgenic tobacco plants, crude leaf extract, read-out: I50 for DHPS inhibition by lysine) of the same molecule?
Its IC50 is 1600 µM.

What about the “inhibition of AK activity” value [4] of the same molecule?
The value was “completely resistant; also recorded: completely unaffected”.

And the “sensitivity of DHPS activity in transgenic plants to lysine inhibition compared with control plants” value (E. coli DHPS [5])?
Its value is “less sensitive to lysine inhibition; also recorded: much more resistant to feedback inhibition”.

And the IC50 (plant DHPSs)?
Its IC50 is 10 to 50 µM.

For `C[C@@H](O)[C@H](N)C(=O)O` [threonine], which “inhibition of AK activity” value [6] is on record?
Its value is 70%.

What about the “inhibition of AK activity” value [4] of the same molecule?
The value was “completely resistant; also recorded: completely unaffected”.
